Data reported in patent US20260035363A1, “COMPOUNDS AND METHODS OF USE THEREOF AS ANTIBACTERIAL AGENTS” (priority 2019, published 2026).
≈ marks a conversion by molar mass, not a printed value. Like-named read-outs stand apart in the source and are kept apart here.

Columns and labels:
Format in all cases: cell-based
[1] = tested on: mitochondrial protein synthesis in HepG2 cells; test: Mitochondrial protein synthesis assay (COX-I to SDH-A ratio, In Cell ELISA); details: Homo sapiens, HepG2, 96 h, 4 days, ratio of COX-I to SDH-A levels, read-out: MPS IC50
Protocol: Mitochondrial Protein Synthesis Assay
Inhibition of mitochondrial protein synthesis was assessed in HepG2 cells by comparing the levels of two subunits of oxidative phosphorylation enzyme complexes, subunit I of Complex IV (COX-I) and the 70 kDa subunit of Complex II (SDH-A). COX-I is mitochondrial DNA encoded and SDH-A is nuclear DNA encoded. HepG2 cells were seeded in 96-well collagen coated plates at 8,000 cells per well and exposed to 2-fold serial dilutions of compounds from 100 μM to 6.25 μM. Microtiter plates were incubated for approximately 5 replication cycles (4 days) prior to assessment of protein levels using a kit as described by the manufacturer (ab110217 MitoBiogenesis In Cell ELISA Kit, Abcam, Cambridge, MA). Inhibition of mitochondrial protein synthesis was expressed as a ratio of COX-1 to SDH-A levels.

[2] = tested on: Mycobacterium tuberculosis (Mtb-GFP; H37Rv pMSP12::GFP); test: microbe, parasite or virus in culture; details: 168 h, pH 6.8, read-out: Mtb Glu MITC95, glucose carbon source, pH 6.8, 7-day growth, GFP fluorescence, lowest concentration inhibiting 95% of growth
[3] = tested on: Mycobacterium tuberculosis (Mtb-GFP; H37Rv pMSP12::GFP); test: microbe, parasite or virus in culture; details: 168 h, pH 6.8, read-out: Mtb Cho MITC95, cholesterol carbon source, pH 6.8, 7-day growth, GFP fluorescence, lowest concentration inhibiting 95% of growth

Compound	IC50 [1] [µM]	MIC [2] [µM]	MIC [3] [µM]
CN1CC(C)(S(=O)(=O)c2ccc(-c3ccc(C4=NO[C@@H](Cn5ccnn5)C4)cc3F)cc2)C1 [Example 3, (5R)-3-[4-[4-(1,3-Dimethylazetidin-3-yl)sulfonylphenyl]-3-fluoro-phenyl]-5-(triazol-1-ylmethyl)-4,5-dihydroisoxazole]	6.2	0.12 (≈ 0.0563 µg/mL)	0.14 (≈ 0.0657 µg/mL)
CN1CC(C)(S(=O)(=O)c2ccc(-c3ccc(C4=NO[C@@H](Cn5ccnn5)C4)c(F)c3F)cc2)C1 [Example 26, 1-({(5R)-3-[4′-(1,3-Dimethylazetidine-3-sulfonyl)-2,3-difluoro[1,1′-biphenyl]-4-yl]-4,5-dihydro-1,2-oxazol-5-yl}methyl)-1H-1,2,3-triazole]	28	0.39 (≈ 0.19 µg/mL)	0.39 (≈ 0.19 µg/mL)
Cc1cn(C[C@H]2CC(c3cc(F)c(C4(F)CCS(=O)(=O)CC4)c(F)c3)=NO2)nn1 [Example 54, 4-(2,6-Difluoro-4-{(5R)-5-[(4-methyl-1H-1,2,3-triazol-1-yl)methyl]-4,5-dihydro-1,2-oxazol-3-yl}phenyl)-4-fluoro-1λ^6-thiane-1,1-dione]	45	0.78 (≈ 0.334 µg/mL)	1.17 (≈ 0.501 µg/mL)
CN1CC(S(=O)(=O)c2ccc(-c3ccc(C4=NO[C@@H](Cn5ccnn5)C4)cc3F)cc2)C1 [Example 32, 1-({(5R)-3-[2-Fluoro-4′-(1-methylazetidine-3-sulfonyl)[1,1′-biphenyl]-4-yl]-4,5-dihydro-1,2-oxazol-5-yl}methyl)-1H-1,2,3-triazole]	0.77	0.065 (≈ 0.0296 µg/mL)	0.09 (≈ 0.041 µg/mL)
CN1CC(F)(c2nnc3cc(-c4ccc(C5=NO[C@@H](Cn6ccnn6)C5)cc4F)ccn23)C1 [Example 51, 3-(3-Fluoro-1-methylazetidin-3-yl)-7-(2-fluoro-4-{(5R)-5-[(1H-1,2,3-triazol-1-yl)methyl]-4,5-dihydro-1,2-oxazol-3-yl}phenyl)[1,2,4]triazolo [4.3-a]pyridine]	1.4	0.09 (≈ 0.0405 µg/mL)	0.09 (≈ 0.0405 µg/mL)
COC(=O)NC[C@H]1CC(c2ccc(-c3ccc(S(=O)(=O)C4(C)CN(C)C4)cc3)c(F)c2)=NO1 [Example 14, Methyl N-[[(5R)-3-[4-[4-(1,3-dimethylazetidin-3-yl)sulfonylphenyl]-3-fluoro-phenyl]-4,5-dihydroisoxazol-5-yl]methyl]carbamate]	42	0.12 (≈ 0.0571 µg/mL)	0.12 (≈ 0.0571 µg/mL)
CN1CC(F)(C(F)(F)c2ccc(-c3ccc(C4=NO[C@@H](Cn5ccnn5)C4)cc3F)cc2)C1 [Example 15, (5R)-3-[4-[4-[Difluoro-(3-fluoro-1-methyl-azetidin-3-yl)methyl]phenyl]-3-fluoro-phenyl]-5-(triazol-1-ylmethyl)-4,5-dihydroisoxazole]	4.3	0.035 (≈ 0.0161 µg/mL)	0.055 (≈ 0.0253 µg/mL)
CN1CC(C)(S(=O)(=O)c2ccc(-c3c(F)cc(C4=NO[C@@H](Cn5ccnn5)C4)cc3F)cc2)C1 [Example 22, 1-({(5R)-3-[4′-(1,3-Dimethylazetidine-3-sulfonyl)-2,6-difluoro[1,1′-biphenyl]-4-yl]-4,5-dihydro-1,2-oxazol-5-yl}methyl)-1H-1,2,3-triazole]	25	0.29 (≈ 0.141 µg/mL)	0.49 (≈ 0.239 µg/mL)
